Laboratory results taken from patent US20100093017A1, “Metabolically Competent Cell Lines” (CXR Biosciences Limited, priority 2008, published 2010).

Tests used:
[1] = tested on: cryopreserved human hepatocytes
HepG2 cells = tested on: HepG2 cells
Experimental: CYP3A4 and P450 reductase were delivered into HepG2 cells (Hep-3A4) by adenoviral transduction at Multiplicity of Infection (MOI)=8. […] The adenovirus Ad-mock was used to transduce HepG2 cells at MOI=8 as control (Hep-mock). CYP3A4 activity was determined and compared in Hep-3A4 cells and cryopreserved human hepatocytes.

[2] = tested on: antioxidant responsive element (ARE); assay: ARE luciferase reporter induction in adenovirus-P450-transduced ARE32 (MCF-7/ARE) cells; format: cell-based, human; conditions: BHA 20 μM; for ARE reporter induction: 7-EC 100 μM; for induction of the ARE reporter: MCF-7 control cells or in the presence of CYP3A4 or CYP2D6, 7-E 100 μM
Experimental: ARE32 cells were seeded in 24-well plates at 2×10^5 cells per well and cultured overnight. Cells were transduced for 2 h with up to three Adeno-P450s at MOI value of 27 pfu/cell in 0.5 ml of culture medium, after which the medium was removed and replaced with fresh medium. Cells were incubated for an additional 48 h and then were treated with chemicals in serum-free medium for 1 day. Then cells were harvested and lysed. The Luciferase Reporter Assay System (Promega) was used to examine reporter gene activity in cell lysates.
In cell line ARE32, the antioxidant responsive element (ARE), activated by Nrf2, is used to drive a luciferase gene as reporter. A functional ARE is found in the 5′ flanking region of genes encoding NQO1, multiple GST isozymes and many other anticarcinogenic/antioxidant genes. Induction of these genes confers cytoprotection against carcinogenesis and acts to minimize the effects of the toxic insult. Therefore, measurement of ARE induction provides useful information into the particular mechanism of toxicity. […] ARE32 control values are from ARE32 cells without virus infection. ARE32 Transduced values are from ARE32 cells infected with three viruses: Ad3A4.F2A.CPR; Ad2D6(His)CPR; and Ad2A6.F2A.1A1 at a total MOI value of 27.
In further experiments, we examined induction of the ARE reporter in MCF-7 cells expressing CYP3A4 and CPR, CYP2A6 and CPR, CYP2D6 and CPR or CYP2A6 and CYP1A1 by either butylated hydroxyanisole, an antioxidant widely used as a food preservative (BHA-20 μM) or 7-ethoxycoumarin, an antioxidant (7-E-100 μM).
With reference to FIG. 5, expression of the luciferase reporter readout is evaluated in comparison to control MCF-7/ARE cells not expressing P450 transgenes (first bar=1).
Butylated hydroxyanisole (BHA) is an antioxidant used as a food additive (E320). […] We examined induction of the ARE reporter in ARE32 cells expressing CYP3A4 and CPR, CYP2A6 and CPR, CYP2D6 and CPR or CYP2A6 and CYP1A1 by either butylated hydroxyanisole (BHA) at 20 μM or 7-ethoxycoumarin (7-EC) at 100 μM (FIG. 8).

[3] = ARE32 cells expressing CYP3A4 or CYP2D6 (with CPR)

SMILES	cell viability (ATP depletion assay) [1]	cell viability (ATP depletion assay) (HepG2 cells; Hep-3A4 and Hep-mock cells)	effect of glutathione depletion by BSO on cytotoxicity (HepG2 cells; 100 μM BSO, Hep-3A4 and Hep-mock cells)	additional CYP3A4 related cytotoxic effect under glutathione depletion (HepG2 cells; 100 μM BSO, Hep-3A4 vs Hep-mock, at the concentrations used)	concentration at which CYP3A4-related toxic activation was observed (HepG2 cells; Hep-3A4 vs Hep-mock) [µM]	ARE reporter induction ([2]; ARE32 cells expressing CYP2A6)	ARE reporter induction [2, 3]	induction of the ARE reporter [2]
CC/C(=C(\c1ccccc1)c1ccc(OCCN(C)C)cc1)c1ccccc1 [tamoxifen]	dose-dependent decrease in cell viability	dose-dependent decrease in cell viability	–	–	–	–	–	–
CC(=O)Nc1ccc(O)cc1 [acetaminophen]	–	dose-dependent decrease in cell viability	significant sensitisation	no apparent additional CYP3A4 related cytotoxic effect	10000	–	–	–
CCOc1ccc2ccc(=O)oc2c1 [7-ethoxycoumarin]	–	–	–	–	–	Significant ARE reporter induction	not with CYP3A4 or CYP2D6	little or no induction
COc1ccc(O)c(C(C)(C)C)c1 [BHA, butylated hydroxyanisole]	–	–	–	–	–	Significant ARE reporter induction	not with CYP3A4 or CYP2D6	little or no induction
